What was measured:
[1] = system: MIAPACA2 cells; assay: CellTiter-Glo viability and CalcuSyn synergy, PRMT5 inhibitor + sotorasib, 6 days (Example 15); assay type: cell-based; design: key: CI<1 synergy, CI=1 additivity, CI>1 antagonism
Description: Raw luminescent values were converted to fraction affected (Fa) with the following equation: […]
Synergy analysis was performed using the CalcuSyn software to determine CI scores based on the drug concentrations used and corresponding Fa values. Results are shown in Table 24 below. *CI Values (Calcusyn): CI<1 indicates synergy. C=1 indicates additivity. C>1 indicates antagonism.

[2] = system: LU99 cells; assay: CellTiter-Glo viability and CalcuSyn synergy, PRMT5 inhibitor + sotorasib, 6 days; settings: for Combination Fa: 8640 min
[3] = system: A549 cells; assay: CellTiter-Glo viability and CalcuSyn synergy, PRMT5 inhibitor + palbociclib, 6 days; settings: for Combination Fa: 8640 min
[4] = system: A549 cells; assay: CellTiter-Glo viability and CalcuSyn synergy, PRMT5 inhibitor + KRAS G12X inhibitor, 6 days; settings: for Combination Fa: 8640 min
[5] = Compound B 0.0384 μM + sotorasib 0.15625 μM
[6] = Compound B 0.0384 μM + sotorasib 0.3125 μM
[7] = Compound B 0.0384 μM + sotorasib 0.625 μM
[8] = Compound B 0.0384 μM + sotorasib 1.25 μM
[9] = Compound B 0.0384 μM + sotorasib 2.5 μM
[10] = Compound B 0.0384 μM + sotorasib 5 μM
[11] = Compound B 0.0384 μM + sotorasib 10 μM
[12] = Compound B 0.1535 μM + palbociclib 0.298023 μM
[13] = Compound B 0.1535 μM + palbociclib 0.476837 μM
[14] = Compound B 0.1535 μM + palbociclib 0.762939 μM
[15] = Compound B 0.1535 μM + palbociclib 1.2207 μM
[16] = Compound B 0.1535 μM + palbociclib 1.95313 μM
[17] = Compound B 0.1535 μM + palbociclib 3.125 μM
[18] = Compound B 0.1535 μM + palbociclib 5 μM
[19] = Compound B 0.0808 μM + KRAS G12X inhibitor 0.010628 μM
[20] = Compound B 0.0808 μM + KRAS G12X inhibitor 0.020193 μM
[21] = Compound B 0.0808 μM + KRAS G12X inhibitor 0.038367 μM
[22] = Compound B 0.0808 μM + KRAS G12X inhibitor 0.072897 μM
[23] = Compound B 0.0808 μM + KRAS G12X inhibitor 0.138504 μM
[24] = Compound B 0.0808 μM + KRAS G12X inhibitor 0.263158 μM
[25] = Compound B 0.0808 μM + KRAS G12X inhibitor 0.5 μM

**Q.** With Cc1cc2cc(C(=O)N(Cc3ccc(C(F)(F)F)cn3)[C@@H](C)c3ncccn3)ccc2nc1N [Compound B] as the molecule, how does the CI score ([1]; Compound B 0.437 μM + sotorasib 0.100 μM) read?
**A.** 1.06

**Q.** What about the CI score ([1]; Compound B 0.831 μM + sotorasib 0.006 μM) of the same molecule?
**A.** 0.83

**Q.** What about the CI score ([1]; Compound B 0.831 μM + sotorasib 0.010 μM) of the same molecule?
**A.** 0.85

**Q.** And the CI score ([1]; Compound B 0.831 μM + sotorasib 0.015 μM)?
**A.** 0.68

**Q.** And the CI score ([1]; Compound B 0.831 μM + sotorasib 0.024 μM)?
**A.** 0.65

**Q.** What about the CI score ([1]; Compound B 0.831 μM + sotorasib 0.039 μM) of the same molecule?
**A.** 0.75

**Q.** What about the CI score ([1]; Compound B 0.831 μM + sotorasib 0.063 μM) of the same molecule?
**A.** 0.89

**Q.** What about the CI score ([1]; Compound B 0.831 μM + sotorasib 0.100 μM) of the same molecule?
**A.** 1.15

**Q.** What about the CI score ([1]; Compound B 1.579 μM + sotorasib 0.006 μM) of the same molecule?
**A.** 1.30

**Q.** And the CI score ([1]; Compound B 1.579 μM + sotorasib 0.010 μM)?
**A.** 1.37

**Q.** And the CI score ([1]; Compound B 1.579 μM + sotorasib 0.015 μM)?
**A.** 0.95

**Q.** What about the CI score ([1]; Compound B 1.579 μM + sotorasib 0.024 μM) of the same molecule?
**A.** 0.91

**Q.** What about the CI score ([1]; Compound B 1.579 μM + sotorasib 0.039 μM) of the same molecule?
**A.** 0.95

**Q.** And the CI score ([1]; Compound B 1.579 μM + sotorasib 0.063 μM)?
**A.** 0.98

**Q.** And the CI score ([1]; Compound B 1.579 μM + sotorasib 0.100 μM)?
**A.** 1.25

**Q.** And the “Computed CI value” [2, 5]?
**A.** 0.307

**Q.** What about the “Combination Fa” value [2, 5] of the same molecule?
**A.** 0.5467

**Q.** What about the “Computed CI value” [2, 6] of the same molecule?
**A.** 0.234

**Q.** And the “Combination Fa” value [2, 6]?
**A.** 0.5942

**Q.** What about the “Computed CI value” [2, 7] of the same molecule?
**A.** 0.269

**Q.** What about the “Combination Fa” value [2, 7] of the same molecule?
**A.** 0.5919

**Q.** And the “Computed CI value” [2, 8]?
**A.** 0.273

**Q.** What about the “Combination Fa” value [2, 8] of the same molecule?
**A.** 0.615

**Q.** What about the “Computed CI value” [2, 9] of the same molecule?
**A.** 0.32

**Q.** And the “Combination Fa” value [2, 9]?
**A.** 0.6304

**Q.** What about the “Computed CI value” [2, 10] of the same molecule?
**A.** 0.321

**Q.** What about the “Combination Fa” value [2, 10] of the same molecule?
**A.** 0.6694

**Q.** What about the “Computed CI value” [2, 11] of the same molecule?
**A.** 0.669

**Q.** What about the “Combination Fa” value [2, 11] of the same molecule?
**A.** 0.6476

**Q.** And the “Computed CI value” [3, 12]?
**A.** 0.293

**Q.** What about the “Combination Fa” value [3, 12] of the same molecule?
**A.** 0.6994

**Q.** What about the “Computed CI value” [3, 13] of the same molecule?
**A.** 0.341

**Q.** What about the “Combination Fa” value [3, 13] of the same molecule?
**A.** 0.7105

**Q.** And the “Computed CI value” [3, 14]?
**A.** 0.497

**Q.** And the “Combination Fa” value [3, 14]?
**A.** 0.7007

**Q.** And the “Computed CI value” [3, 15]?
**A.** 0.421

**Q.** What about the “Combination Fa” value [3, 15] of the same molecule?
**A.** 0.7619

**Q.** What about the “Computed CI value” [3, 16] of the same molecule?
**A.** 0.626

**Q.** What about the “Combination Fa” value [3, 16] of the same molecule?
**A.** 0.761

**Q.** What about the “Computed CI value” [3, 17] of the same molecule?
**A.** 0.685

**Q.** And the “Combination Fa” value [3, 17]?
**A.** 0.7958

**Q.** And the “Computed CI value” [3, 18]?
**A.** 0.377

**Q.** And the “Combination Fa” value [3, 18]?
**A.** 0.8818

**Q.** What about the “Computed CI value” [4, 19] of the same molecule?
**A.** 0.38

**Q.** And the “Combination Fa” value [4, 19]?
**A.** 0.5945

**Q.** And the “Computed CI value” [4, 20]?
**A.** 0.366

**Q.** What about the “Combination Fa” value [4, 20] of the same molecule?
**A.** 0.6255

**Q.** What about the “Computed CI value” [4, 21] of the same molecule?
**A.** 0.247

**Q.** And the “Combination Fa” value [4, 21]?
**A.** 0.7012

**Q.** What about the “Computed CI value” [4, 22] of the same molecule?
**A.** 0.284

**Q.** What about the “Combination Fa” value [4, 22] of the same molecule?
**A.** 0.7187

**Q.** What about the “Computed CI value” [4, 23] of the same molecule?
**A.** 0.27

**Q.** What about the “Combination Fa” value [4, 23] of the same molecule?
**A.** 0.7582

**Q.** And the “Computed CI value” [4, 24]?
**A.** 0.409

**Q.** What about the “Combination Fa” value [4, 24] of the same molecule?
**A.** 0.7615

**Q.** And the “Computed CI value” [4, 25]?
**A.** 0.503

**Q.** What about the “Combination Fa” value [4, 25] of the same molecule?
**A.** 0.7849
